The record followed here is ChEMBL document CHEMBL5214984, “Identification of Organic Anion Transporter 2 Inhibitors: Screening, Structure-Based Analysis, and Clinical Drug Interaction Risk Assessment” (J Med Chem, 2022).

Data set [1] in a line: Lipophilicity, log D of the compound. The note with it: octanol/water.
Data set [2] is described as follows: Inhibition of human OAT2 tv.1 variant expressed in HEK293 cells assessed as inhibition of [3H]cGMP uptake by scintillation analysis. It counts as ADME, cell-based. The following applies: HEK293, 3 h.
A short description of data set [3]: Dissociation constant, pKa of the compound. Type of data set: physicochemical.

Broadly, the logD is the decadic logarithm of the distribution of all forms, ionised or not, between an organic phase and buffer at a given pH. Broadly, the IC50 is the concentration that gives 50% inhibition. The term pKa denotes the pH at which an ionisable group is half protonated. The low end stands for a group that gives up its proton readily, the high end for a group that holds its proton tightly. For the compound `CCCc1nc2c(C)cc(-c3nc4ccccc4n3C)cc2n1Cc1ccc(-c2ccccc2C(=O)O)cc1`, the logD in data set [1] was found to be 2.35. In addition, the half-inhibitory concentration (IC50) in data set [2] is 13.7 µM. For the same compound, in data set [3], the pKa is 3.6.

In data set [1], `CNS(=O)(=O)Cc1ccc2[nH]cc(CCN(C)C)c2c1` had a log distribution coefficient (logD) of -1.08. The pKa in data set [3] is 8.7.

In the case of `CCCCc1nc(C)c(CC(=S)N(C)C)c(=O)n1Cc1ccc(-c2ccccc2-c2nnn[nH]2)cc1`, the pH-dependent lipophilicity (logD) in data set [1] came to 0.91. Also, the IC50 in data set [2] came out at 15.7 µM. In data set [3], the pKa came to 4.2.

In data set [1], `O=C(O)CSc1nnc(Br)n1-c1ccc(C2CC2)c2ccccc12` returned a log distribution coefficient (logD) of 0.46. Also, the IC50 in data set [2] turned out to be 11.5 µM. In data set [3], the pKa came out at 3.4.

Regarding `O=C1NC(=O)N(/N=C/c2ccc(-c3ccc([N+](=O)[O-])cc3)o2)C1O` (stereo not given), the half-inhibitory concentration (IC50) in data set [2] came to 16 µM.

In data set [1], `C[C@H]1CN(C[C@H](Cc2ccccc2)C(=O)NCC(=O)O)CC[C@@]1(C)c1cccc(O)c1` [ALVIMOPAN] gave a logD of 0.65. Besides, in data set [3], the pKa amounted to 3.2.

The compound `CNn1cc(C(=O)O)c(=O)c2cc(F)c(N3CCN(C)CC3)cc21` [AMIFLOXACIN] showed a pH-dependent lipophilicity (logD) in data set [1] of -0.08. The compound also registered a pKa in data set [3] of 6.3.

In turn, `CNCC[C@@H](Oc1ccccc1C)c1ccccc1` [ATOMOXETINE] gave a log distribution coefficient (logD) in data set [1] of 0.57. In addition, the pKa in data set [3] amounted to 9.6.

As for `O=C1CN(/N=C/c2ccc(-c3ccc([N+](=O)[O-])cc3)o2)C(=O)N1` [DANTROLENE], in data set [2], the IC50 came out at 16 µM.

Compound `CCN(CC)C(=O)/C(C#N)=C/c1cc(O)c(O)c([N+](=O)[O-])c1` [ENTACAPONE] came in with a logD in data set [1] of 0.23. The IC50 in data set [2] was 1.9 µM. The pKa in data set [3] is 4.2.

On to `COc1ccc(Cl)cc1C(=O)NCCc1ccc(S(=O)(=O)NC(=O)NC2CCCCC2)cc1` [GLYBURIDE], for which the log distribution coefficient (logD) in data set [1] amounted to 2.15. Further, the IC50 in data set [2] came out at 14.9 µM.

`CN(C)CCCN1c2ccccc2CCc2ccccc21` [IMIPRAMINE] came in with a pKa in data set [3] of 9.

Consider `COc1ccc2c(c1)c(CC(=O)O)c(C)n2C(=O)c1ccc(Cl)cc1` [INDOMETHACIN], for which the logD in data set [1] turned out to be 1.03. For the same compound, the concentration for half-maximal inhibition (IC50) in data set [2] came out at 2.9 µM.

Regarding `N=C(N)NCCCNC(=O)[C@@H]1CCCCN1C(=O)[C@@H](CC1CCCCC1)NCC(=O)O` [INOGATRAN], in data set [1], the logD came out at 0.04. Moreover, in data set [3], the pKa came to 2.1.

Regarding `CC(C(=O)O)c1cccc(C(=O)c2ccccc2)c1` (stereo not given) [KETOPROFEN], in data set [1], the logD came to 0.21. Moreover, in data set [2], the IC50 amounted to 14.9 µM.

As for `COc1cccc(OC)c1C(=O)N[C@@H]1C(=O)N2[C@@H]1SC(C)(C)[C@@H]2C(=O)O` [METHICILLIN], in data set [1], the log distribution coefficient (logD) is -1.88. The same compound had a pKa in data set [3] of 2.8.

Turning to `CN(C)C(=O)CCSC(SCCC(=O)O)c1cccc(/C=C/c2ccc3ccc(Cl)cc3n2)c1` (stereo not given) [MK-571], in data set [1], the logD was 2.55. In data set [2], the IC50 stood at 9.5 µM. Also, the pKa in data set [3] was 4.6.

In the case of `CC(C)(C)NCC(O)COc1cccc2c1CC(O)C(O)C2` (stereo not given) [NADOLOL], in data set [1], the logD was -1.19. For the same compound, the pKa in data set [3] came out at 9.3.

`COC(=O)C1=C(C)NC(C)=C(C(=O)OC)C1c1ccccc1[N+](=O)[O-]` [NIFEDIPINE]: the half-maximal inhibitory concentration (IC50) in data set [2] was 6.5 µM.

On to `Nc1nc2[nH]cc(CCc3ccc(C(=O)N[C@@H](CCC(=O)O)C(=O)O)cc3)c2c(=O)[nH]1` [PEMETREXED], for which the logD in data set [1] was -1.93. For the same compound, the pKa in data set [3] was determined as 3.5.

Regarding `Cc1noc(NS(=O)(=O)c2ccc(N)cc2)c1C` [SULFISOXAZOLE], in data set [1], the logD was -1.17. This compound had a pKa in data set [3] of 4.8.

The compound `Cc1ccc(O)c([C@H](CCN(C(C)C)C(C)C)c2ccccc2)c1` [TOLTERODINE] returned a log distribution coefficient (logD) in data set [1] of 1.82. Moreover, the pKa in data set [3] worked out at 9.2.

Take `N[C@@H]1[C@H]2CN(c3nc4c(cc3F)c(=O)c(C(=O)O)cn4-c3ccc(F)cc3F)C[C@@H]12` [TROVAFLOXACIN]: the log distribution coefficient (logD) in data set [1] was determined as 0.42. In addition, the IC50 in data set [2] is 11.5 µM. In addition, in data set [3], the pKa was 6.

As for `CN(C)CCc1c[nH]c2ccc(C[C@H]3COC(=O)N3)cc12` [ZOLMITRIPTAN], the pH-dependent lipophilicity (logD) in data set [1] was -0.63. The compound further showed a pKa in data set [3] of 8.7.
